Data on 1 compound can be found in PMC6235670, “An mTOR Signaling Modulator Suppressed Heterotopic Ossification of Fibrodysplasia Ossificans Progressiva” (Stem Cell Reports, 2018).

Each structure is given as a SMILES string.

The subject of one data set is C57BL/6 mice. Briefly: Growth plate histology and normal bone µCT in compound-administered BMP-7-injected mice. The note with it: 5 mg/kg i.p., 2 weeks. The procedure: MTOR s604 […]tt […]at […]
System Engineering) according to the manufacturer's instructions. […]
BMP-7-induced HO model mice. BMP -7 (2 µ g/mouse) was injected into the right gastrocnemius muscle of C57BL/6NJcl mice (6-8 weeks, male, CLEA Japan), and compounds were administered once a day, five times a week (intraperitoneal administration). Mice were analyzed 2 weeks after injection. […]
Histological analysis of growth plates chondrocytes. Knee joints were obtained from BMP-7-injected and test compounds-administrated C57BL/6NJcl mice after 2 weeks treatment and fixed, paraffin-embedded, and sectioned and stained with Safranin O. The thickness of the proliferative and hypertrophic zones of the growth plate were measured using ImageJ software on images obtained using a Keyence microscope (Keyence A merica). The proliferative zone was defined as the region with flat chondrocytes stacked in longitudinal columns, and the hypertrophic zone as the region where chondrocytes are enlarged in size and form clusters.
Normal bone µCT. The left legs of mice were obtained from BMP -7-injected and test -compounds administrated C57BL/6NJcl mice after 2 weeks treatment. The region of interest (ROI) included the femur- tibia (entire femur in addition to the part of tibia above tibia/fibular junction). […]
Tests of side effects of direct and indirect mTOR inhibitors. Related

A further data set relates to BMP signaling (BRE-Luc). Put plainly: BRE-Luc reporter assay in FOP-iMSCs. It is filed as cell-based, human. The note with it: activin A and compounds for 16 hr. On the procedure:
FOP-iMSCs transiently transfected with BRE-Luc (A) or CAGA-Luc (B) with CMV-Renilla were stimulated with activin A and compounds for 16 hr (A) or 3 hr (B). […] One day after siRNA transfection, chondrogenic induction with activin A was initiated, and after 7 days the cells were harvested. […] FOP-iMSCs cultured with 10% FBS were treated with 100 nM rapamycin (Rapa) or TAK 165 (TAK) for 2 hr, and the cells were harvested. […] 1 μM TAK, 1 μM CP (CP-724714, another selective ERBB2 inhibitor), or 10 nM Rapa were applied in the experiments.
On the technique in general: In a reporter assay the amount or activity of a reporter protein is the signal.

A further data set relates to mTOR signaling (p-S6). Briefly: p-S6 western blotting in FOP-iMSCs cultured with 10% FBS. The data set is classed as cell-based, human. To be noted: 100 nM, 2 hr. The procedure:
time point t = 24 h from t = 0 h, and relative cell migration was expressed as the ratio of the absolute cell migrations between the experimental and control groups by using CL-Quant software (Nikon Corp.).
Quantitative PCR analysis. Total RNA was purified with RNeasy Kit (Qiagen) and treated with DNase -one Kit (Qiagen) to remove genomic DNA. Total RNA (0.3 µg) was reverse transcribed for single-stranded cDNA using random primers and Superscript III reverse transcriptase (Thermo Fisher Scientific) according to the manufacturer’s instructions. Quantitative PCR was performed with Thunderbird SYBR qPCR Mix (TOYOBO) and analyzed with the StepOne real-time PCR system (Applied Biosystems). […]
Microarray experiments. 2D chondrogenic induction was performed in FOP-iMSCs stimulated with or without 100 ng/mL Activin-A, TAK 165, CP-724714 and Lapatinib. […] Raw CEL files were imported into GeneSpring GX 12.6.1 software (Agilent Technologies), and expression values were calculated with the RMA16 algorithm. […]
Protein bands were detected with ECL Prime Western Blotting Detection Reagent (GE Healthcare) and visualized using BIO-RAD Molecular Imager® Chemi-DocTM XRS+ with Image LabTM software (Bio-Rad). […]
GAG value. The GAG content was quantified in pellets with the Blyscan Glycosaminoglycan Assay Kit (Biocolor). The DNA content was quantified using PicoGreen dsDNA Quantitation Kit (Thermo Fisher […]
A general note: In western blotting, separated proteins are transferred to a membrane and probed.

For data set [1], the system named is healthy control iPSC (414C2)-derived iMSCs. Put plainly: Wound healing assay.
The next data set concerns ERBB2. The note with it: panel of 300 recombinant protein kinases; ref Anastassiadis et al., 2011; cited from earlier work.

`FC(F)(F)c1ccc(/C=C/c2nc(COc3ccc(CCCCn4ccnn4)cc3)co2)cc1` [TAK 165, mubritinib]: in the data set with C57BL/6 mice, the “Bone Mineral Density (normal bone µCT) vs vehicle” value is on record as “n.s”; the “Bone volume (normal bone µCT, femur-tibia) vs vehicle” value is “n.s”; the “Hypertrophic zone thickness of growth plate vs vehicle” value was “n.s”; the “Proliferative zone thickness of growth plate vs vehicle” value is “n.s”. In the data set on C57BL/6 mice, the “chondrogenesis of normal chondrocytes (growth plate)” value is reported as “did not impair” and the “normal skeletal development in vivo” value is “did not impair”. In addition, the “BRE-Luc (BMP-specific luciferase reporter)” value in the data set with BMP signaling (BRE-Luc) is “did not affect”. In the data set on mTOR signaling (p-S6), the “p-S6 levels (direct mTOR inhibition)” value was “did not”. In data set [1] (10 nM rapamycin or 1 µM TAK165, 24 h), the “Relative cell migration (wound healing assay) vs DMSO” value is reported as “n.s”. For the same compound, the “wound healing in vitro” value in data set [1] (1 µM, 24 h) is on record as “did not impair”. Moreover, in the data set on ERBB2, the “selectivity for ERBB2” value was “highly selective”.
